# How the values were obtained:
# hAChE [1] = molecular target: T1, hAChE (Homo sapiens, UniProt P22303); type: in vitro ADME; details: 0.1 mM, overnight with hAChE, phosphate buffer pH 8.0, 25 °C, NMR
# T1 construct: purchased Sigma-Aldrich
# Method: There is a possibility that the ester group of the compound 2c can be hydrolyzed by AChE. To test this possibility, the compound 2c (0.1 mM) was incubated overnight with AChE in phosphate buffer (pH 8.0). The same buffer containing compound 2c but without AChE was used as a control. After the end of incubation, the buffer was filtered out of AChE using a centricon-30 ultrafiltration micro-concentrator from Amicon (Millipore Corporation, Billerica, MA, USA) and samples were analyzed by NMR spectroscopy. It was shown that the resonance signals both in the control spectrum and in the spectrum of the residue after AChE treatment are almost the same to those for compound 2c (Supplementary materials, Figures S6, S22 and S41–S44).
# The compound 2c was dissolved in ethanol and then in 2 mL of 0.1M sodium phosphate buffer (pH = 8.0) at the final concentration of 0.1 mM. Then, 2.0 units of hAChE were added. The final concentration of ethanol in the buffer was 0.1% vol. The compound 2c was incubated with hAChE overnight at 25 °C. The same volume of buffer containing compound 2c at the concentration of 0.1 mM but without AChE was used as a control. After the end of incubation, the buffer was filtered out of AChE using a centricon-30 ultrafiltration micro-concentrator from Amicon (Millipore Corporation, Billerica, MA, USA). […]
# hBChE = molecular target: T2, hBChE (Homo sapiens, UniProt P06276); experiment: Inhibition constants and inhibition type for hBChE (Dixon and Cornish-Bowden plots); type: biochemical
# T2 construct: hBChE from blood plasma; purchased Sigma-Aldrich; host or cells: human blood plasma
# Method: (§1) To study the mechanism of hAChE and hBChE inhibition by compound 2c, the inhibition constants (Ki) were determined. Experiments were performed using three different concentrations of acetylthiocholine (ATC) as substrate for hAChE or butyrylthiocholine (BTC) for hBChE. Analysis of Dixon and Cornish-Bowden plots established that hAChE and hBChE inhibition was of mixed type, with Kci (competitive inhibition) and Kui (uncompetitive) components: Kci = […], Kui = 315 ± 95 pM for hAChE (Figure 3A,B), and Kci = 10.1 ± 3.1 µM, Kui = 24 ± 4.6 µM for hBChE (Figure 3C,D).
# (§2) The inhibition constants (Ki) for hAChE and hBChE were determined by Ellman’s method at 412 nm and 25 °C in 0.1M sodium phosphate buffer (pH = 8.0) with various substrate (ATC, BTC) concentrations in the range 0.01–0.1 mM, using UV-1800 Shimadzu (Kyoto, Japan) spectrophotometer. The final enzyme concentration in the assays was in the picomolar range. Controls of active enzyme and substrate spontaneous hydrolysis in the absence of an inhibitor were performed for each substrate concentration. Absorbance change was recorded for 5 min. Inhibition constants were determined from Dixon plot and Cornish-Bowden transformation.
# hAChE [2] = molecular target: T1, hAChE; experiment: Inhibition constants and inhibition type for hAChE (Dixon and Cornish-Bowden plots); type: biochemical
# Method: as §1, §2
# CD1 mice = experiment: Acute toxicity (LD50), intraperitoneal injection; type: in vivo; details: i.p. injection
# Method: All experiments involving animals were performed in accordance with the guidelines set out by the European Union Council Directive 2010/63/EU; the experimental protocols were approved by the Animal Care and Use Committee of the Federal Research Center “Kazan Scientific Center of the Russian Academy of Sciences”. Toxicological experiments were performed using intraperitoneal injection of the various compounds in CD1 mice weighing 20–25 g. Mice were maintained on a 12 h light/dark cycle (light from 7:00 a.m. to 7:00 p.m.) at 20−22 °C and 60−70% relative humidity. Five different doses (determined during preliminary tests) were used with six animals per dose. Animals were observed 14 days after injection, and symptoms of intoxication were recorded. […] LD50 was determined by the method of Weiss. Stock solutions of compounds were prepared in ethanol or water. Compounds were administered intraperitoneally in sterile physiological saline. The concentration of ethanol in physiological saline was 5% vol.
# T1 sequence (P22303 32-614): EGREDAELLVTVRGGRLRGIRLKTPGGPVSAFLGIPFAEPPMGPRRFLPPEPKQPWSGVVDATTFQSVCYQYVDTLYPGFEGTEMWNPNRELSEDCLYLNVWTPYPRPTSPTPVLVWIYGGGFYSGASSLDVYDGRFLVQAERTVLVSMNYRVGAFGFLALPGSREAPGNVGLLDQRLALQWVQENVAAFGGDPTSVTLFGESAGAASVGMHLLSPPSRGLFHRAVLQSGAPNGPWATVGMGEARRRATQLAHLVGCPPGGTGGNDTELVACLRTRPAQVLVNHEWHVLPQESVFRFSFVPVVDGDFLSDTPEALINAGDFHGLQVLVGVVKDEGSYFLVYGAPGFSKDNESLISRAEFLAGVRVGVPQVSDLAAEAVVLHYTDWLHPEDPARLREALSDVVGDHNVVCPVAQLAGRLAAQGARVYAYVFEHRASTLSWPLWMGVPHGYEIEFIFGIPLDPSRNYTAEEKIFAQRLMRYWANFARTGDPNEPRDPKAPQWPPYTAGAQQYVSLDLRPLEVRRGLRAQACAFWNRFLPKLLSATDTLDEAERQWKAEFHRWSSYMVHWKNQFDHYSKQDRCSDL
# T2 sequence (P06276 29-602): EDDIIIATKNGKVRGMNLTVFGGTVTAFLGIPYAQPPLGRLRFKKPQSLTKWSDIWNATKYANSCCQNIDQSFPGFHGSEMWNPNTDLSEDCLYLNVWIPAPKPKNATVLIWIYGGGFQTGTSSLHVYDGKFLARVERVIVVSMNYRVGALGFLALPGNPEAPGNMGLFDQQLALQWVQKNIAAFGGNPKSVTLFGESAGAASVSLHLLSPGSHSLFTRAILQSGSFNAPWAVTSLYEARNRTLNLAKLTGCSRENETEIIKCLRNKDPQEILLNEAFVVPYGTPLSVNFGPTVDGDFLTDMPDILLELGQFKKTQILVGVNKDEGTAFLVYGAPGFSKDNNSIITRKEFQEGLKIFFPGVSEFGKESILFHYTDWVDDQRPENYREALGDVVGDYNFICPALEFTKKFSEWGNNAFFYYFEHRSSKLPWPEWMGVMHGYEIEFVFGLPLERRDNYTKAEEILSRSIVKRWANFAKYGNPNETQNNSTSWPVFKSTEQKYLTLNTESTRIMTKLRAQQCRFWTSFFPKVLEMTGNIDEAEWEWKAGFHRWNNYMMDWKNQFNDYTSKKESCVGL
smiles,measurement,setting,value
"CCN(CCCCCn1c(C)cc(=O)n(CCCCCN(CC)Cc2cccc(C(=O)OC)c2)c1=O)Cc1cccc(C(=O)OC)c1 [2c, 1,3-Bis[5-(meta-methoxycarbonylbenzylethylamino)pentyl]-6-methyluracil]",stability in the presence of AChE (hydrolysis of ester groups),hAChE [1],remains stable in the presence of AChE
same,type of inhibition,hBChE,mixed type
same,Kui (uncompetitive),hBChE; substrate BTC,24 ± 4.6 µM
same,type of inhibition,hAChE [2],mixed type
same,Kui (uncompetitive),hAChE [2]; substrate ATC,315 ± 95 pM
same,LD50,CD1 mice,147 mg/kg

# Reference: PMC9694926, “Novel Uracil-Based Inhibitors of Acetylcholinesterase with Potency for Treating Memory Impairment in an Animal Model of Alzheimer’s Disease” (Molecules, 2022)
